Experimental data as given in ChEMBL document CHEMBL1132043, “4-N-linked-heterocyclic piperidine derivatives with high affinity and selectivity for human dopamine D4 receptors” (Bioorg Med Chem Lett, 1999).

Columns and labels:
Assay in all cases: biochemical
D(2) dopamine receptor = D(2) dopamine receptor (Homo sapiens, UniProt P14416)
Description: Displacement of [3H]spiperone from human Dopamine receptor D2 expressed in CHO cells

D(3) dopamine receptor = D(3) dopamine receptor (Homo sapiens, UniProt P35462)
Description: Displacement of [3H]spiperone from human Dopamine receptor D3 expressed in HEK293 cells

D(4) dopamine receptor = molecular target: T1, D(4) dopamine receptor (Homo sapiens, UniProt P21917)
T1 sequence (P21917 whole entry): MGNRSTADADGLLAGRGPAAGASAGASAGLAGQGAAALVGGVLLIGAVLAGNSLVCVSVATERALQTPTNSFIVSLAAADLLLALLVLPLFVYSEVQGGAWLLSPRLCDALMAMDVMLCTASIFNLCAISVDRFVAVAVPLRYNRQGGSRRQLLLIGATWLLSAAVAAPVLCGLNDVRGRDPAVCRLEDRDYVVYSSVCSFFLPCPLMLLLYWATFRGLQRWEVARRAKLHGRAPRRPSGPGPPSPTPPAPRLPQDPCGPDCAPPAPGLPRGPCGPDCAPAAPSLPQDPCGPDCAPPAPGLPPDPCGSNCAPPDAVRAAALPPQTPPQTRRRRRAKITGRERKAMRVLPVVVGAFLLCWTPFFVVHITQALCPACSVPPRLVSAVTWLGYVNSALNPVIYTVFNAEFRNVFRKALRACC
Description: Displacement of [3H]spiperone from human Dopamine receptor D4 expressed in HEK293 cells

Chain of D(3) dopamine receptor (P35462 whole entry): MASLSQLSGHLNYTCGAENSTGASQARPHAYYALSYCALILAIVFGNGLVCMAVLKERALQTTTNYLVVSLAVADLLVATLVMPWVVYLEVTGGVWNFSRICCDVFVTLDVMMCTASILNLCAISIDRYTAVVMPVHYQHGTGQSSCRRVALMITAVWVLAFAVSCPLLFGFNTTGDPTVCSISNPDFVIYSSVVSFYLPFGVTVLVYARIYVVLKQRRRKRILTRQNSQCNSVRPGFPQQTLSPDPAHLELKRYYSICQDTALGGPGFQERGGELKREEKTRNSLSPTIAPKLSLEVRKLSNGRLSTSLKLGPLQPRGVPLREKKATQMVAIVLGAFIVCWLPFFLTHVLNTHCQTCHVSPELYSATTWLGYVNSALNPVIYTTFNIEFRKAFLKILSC
Chain of D(2) dopamine receptor (P14416 whole entry): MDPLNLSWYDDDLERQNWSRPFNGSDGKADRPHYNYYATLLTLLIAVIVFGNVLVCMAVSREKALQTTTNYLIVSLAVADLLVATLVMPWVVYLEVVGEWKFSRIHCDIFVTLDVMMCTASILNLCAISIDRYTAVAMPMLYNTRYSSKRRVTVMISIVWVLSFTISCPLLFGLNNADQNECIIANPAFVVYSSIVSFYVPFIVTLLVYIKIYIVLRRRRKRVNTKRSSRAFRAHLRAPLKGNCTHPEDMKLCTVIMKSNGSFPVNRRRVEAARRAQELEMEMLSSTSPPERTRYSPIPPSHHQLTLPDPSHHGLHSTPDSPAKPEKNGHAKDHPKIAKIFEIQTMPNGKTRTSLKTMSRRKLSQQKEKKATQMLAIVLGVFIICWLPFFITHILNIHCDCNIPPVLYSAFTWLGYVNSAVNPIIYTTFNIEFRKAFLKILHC

Row | Structure (SMILES) | Ki (D(2) dopamine receptor) | Ki (D(3) dopamine receptor) | Ki (D(4) dopamine receptor)
1 | c1ccc(CN2CCC(n3nnc(-c4ccccc4)n3)CC2)cc1 | 1100 nM | 1400 nM | 27 nM
2 | c1ccc(CN2CCC(n3nnnc3-c3ccccc3)CC2)cc1 | > 1800 nM | > 4400 nM | 1200 nM
3 | Cc1c(-c2ccccc2)nnn1C1CCN(Cc2ccccc2)CC1 | 1600 nM | 2500 nM | 17 nM
4 | Cc1c(-c2ccccc2)cnn1C1CCN(Cc2ccccc2)CC1 | 140 nM | 450 nM | 2.5 nM
5 | Cc1nn(C2CCN(Cc3ccccc3)CC2)cc1-c1ccccc1 | 6.1 nM | 28 nM | 0.39 nM
6 | Cc1c(-c2ccccc2)n[nH]c1C1CCN(Cc2ccccc2)CC1 | 90 nM | 450 nM | 4.7 nM
7 | Cc1nn(C2CCN(Cc3cccc(C#N)c3)CC2)cc1-c1ccccc1 | 15 nM | 260 nM | 1.2 nM
8 | Cc1cc(-c2ccccc2)n(C2CCN(Cc3ccccc3)CC2)n1 | 310 nM | 3000 nM | 140 nM
9 | Cc1nnn(C2CCN(Cc3ccccc3)CC2)c1-c1ccccc1 | 1200 nM | 2200 nM | 18 nM
10 | Cc1c(-c2ccccc2)cnn1C1CCN(Cc2cccc(Cl)c2)CC1 | 370 nM | 820 nM | 3.1 nM
11 | c1ccc(CN2CCC(n3cc(-c4ccccc4)nn3)CC2)cc1 | 460 nM | 1300 nM | 32 nM
12 | c1ccc(CN2CCC(n3nccc3-c3ccccc3)CC2)cc1 | 510 nM | 810 nM | 15 nM
13 | c1ccc(CN2CCC(n3cnc(-c4ccccc4)c3)CC2)cc1 | 450 nM | 740 nM | 40 nM
14 | Cc1c(-c2ccccc2)cnn1C1CCN(Cc2cccc(C#N)c2)CC1 | > 1700 nM | 4400 nM | 5.2 nM
15 | Cc1nn(C2CCN(Cc3cccc(Cl)c3)CC2)cc1-c1ccccc1 | 15 nM | 120 nM | 3.1 nM
